{
  "source": "paper PMC8508694",
  "about": "“Insights into the Genetic Variations of Human Cytochrome P450 2C9: Structural Analysis, Characterization and Comparison” (International Journal of Molecular Sciences, 2021)",
  "key": {"CYP2C9*8": {"molecular_target": "T1, CYP2C9*8 (Homo sapiens, UniProt P11712, R150H/V490I)", "T1 construct": "residues 1 to 23 (N-terminal transmembrane anchor) replaced with MAKKT, V490I, C-terminal four-histidine tag", "T1 sequence (P11712 24-490 R150H/V490I)": "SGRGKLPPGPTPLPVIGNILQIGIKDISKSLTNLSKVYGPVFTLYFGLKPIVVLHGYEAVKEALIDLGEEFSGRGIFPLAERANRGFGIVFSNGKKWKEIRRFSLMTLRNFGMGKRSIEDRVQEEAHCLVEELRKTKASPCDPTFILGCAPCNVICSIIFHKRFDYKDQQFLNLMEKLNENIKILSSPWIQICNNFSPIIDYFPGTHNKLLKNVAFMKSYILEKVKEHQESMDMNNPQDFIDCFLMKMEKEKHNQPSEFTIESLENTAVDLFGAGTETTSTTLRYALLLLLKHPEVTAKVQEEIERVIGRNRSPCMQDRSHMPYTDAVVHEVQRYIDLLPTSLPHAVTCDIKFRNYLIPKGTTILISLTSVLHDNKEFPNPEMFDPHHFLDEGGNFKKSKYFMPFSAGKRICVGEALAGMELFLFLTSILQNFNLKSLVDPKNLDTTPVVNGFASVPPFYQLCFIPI", "experiment": "([…] Å) and ITC", "assay_type": "binding"}, "CYP2C9*3": {"molecular_target": "T2, CYP2C9*3 (Homo sapiens, UniProt P11712, I359L/V490I)", "T2 construct": "residues 1 to 23 (N-terminal transmembrane anchor) replaced with MAKKT, V490I, C-terminal four-histidine tag", "T2 sequence (P11712 24-490 I359L/V490I)": "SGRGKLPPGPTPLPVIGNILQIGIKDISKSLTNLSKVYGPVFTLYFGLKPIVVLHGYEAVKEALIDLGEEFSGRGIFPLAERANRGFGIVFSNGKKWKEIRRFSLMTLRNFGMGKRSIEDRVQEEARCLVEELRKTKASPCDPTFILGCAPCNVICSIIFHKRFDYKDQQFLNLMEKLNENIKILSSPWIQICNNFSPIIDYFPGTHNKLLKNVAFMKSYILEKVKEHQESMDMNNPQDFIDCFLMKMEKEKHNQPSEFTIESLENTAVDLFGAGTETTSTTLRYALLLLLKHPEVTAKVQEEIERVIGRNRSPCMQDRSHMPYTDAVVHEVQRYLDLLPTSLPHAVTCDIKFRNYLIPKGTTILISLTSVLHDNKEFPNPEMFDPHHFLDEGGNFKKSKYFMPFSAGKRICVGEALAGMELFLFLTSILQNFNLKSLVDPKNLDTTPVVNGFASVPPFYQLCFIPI", "experiment": "ITC", "assay_type": "binding"}},
  "data": [
    {"smiles": "CCCCc1nc(Cl)c(CO)n1Cc1ccc(-c2ccccc2-c2nn[nH]n2)cc1", "note": "[losartan]", "values": [
      {"measurement": "Kd", "setting": "CYP2C9*8", "value": "8.95 ± 0.97", "unit": "µM"},
      {"measurement": "Kd", "setting": "CYP2C9*3", "value": "24.5 ± 2.7", "unit": "µM"}
    ]}
  ]
}
